Test systems include HL-60(TB) leukemia; UACC-62 melanoma; MOLT-4 leukemia; OVCAR-8 ovarian; SR leukemia; U251 CNS; TK-10 renal; KM12 colon; UACC-257 melanoma; A549 NSCLC.
Common to all, as to assay: DTP human tumour cell line panel, 48 h

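Results reflect a 48-hour exposure of cells in 96-well plates to compound at five concentrations. GI50 = concentration required for 50% inhibition of growth. TGI marks complete inhibition of growth.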

The results in this text go back to PubChem BioAssay (NCI).

Take `O=c1cc(-c2cccs2)[nH]c2cc3c(cc12)OCO3`: the total growth inhibition concentration (TGI) – broadly, the concentration giving total growth inhibition – with HL-60(TB) leukemia was 40.1 µM; with UACC-62 melanoma it was greater than 25 µM; in the test on MOLT-4 leukemia, greater than 100 µM; in the test on OVCAR-8 ovarian, 27.7 µM; with SR leukemia, greater than 100 µM; in the test with U251 CNS it was greater than 60.2 µM. Moreover, the TGI with TK-10 renal, with KM12 colon, in the test with UACC-257 melanoma and in the test on A549 NSCLC was greater than 100 µM each time.

For `Clc1ccc(-c2cn3ccnc3c(-c3ccc(Cl)cc3)n2)cc1`, the GI50 (commonly the concentration that inhibits growth by half) in the test on HL-60(TB) leukemia is 0.954 µM; in the test with UACC-62 melanoma, 36.2 µM; in the test on MOLT-4 leukemia it was 0.462 µM; with OVCAR-8 ovarian, 16 µM; in the test with U251 CNS it was 12.9 µM; in the test on TK-10 renal, 22.6 µM. For the same compound, the GI50 in the test on KM12 colon is 5.33 µM; in the test with UACC-257 melanoma it was 2.58 µM; with A549 NSCLC it was 8.31 µM. Besides, the concentration for total growth inhibition (TGI) with HL-60(TB) leukemia was 19 µM; in the test on UACC-62 melanoma it was greater than 100 µM; in the test on MOLT-4 leukemia, greater than 100 µM; with OVCAR-8 ovarian it was greater than 100 µM; in the test on SR leukemia, 4.02 µM; in the test on U251 CNS it was 57.4 µM. Also, the total growth inhibition concentration (TGI) in the test on TK-10 renal was 73.5 µM; in the test with KM12 colon, 37.9 µM; in the test with UACC-257 melanoma it was 33.9 µM; with A549 NSCLC it was greater than 100 µM.

On to `CC1=C(C(=O)Nc2ccccc2C)C(c2ccc(Cl)cc2)C(C(=O)Nc2ccccc2C)=C(C)N1`, for which the concentration for total growth inhibition (TGI) with HL-60(TB) leukemia, in the test on UACC-62 melanoma, in the test with MOLT-4 leukemia, in the test with OVCAR-8 ovarian, in the test on SR leukemia and with U251 CNS was greater than 100 µM in each case. In addition, the TGI in the test on TK-10 renal, in the test with KM12 colon, with UACC-257 melanoma and in the test with A549 NSCLC was greater than 100 µM in each case.

With `O=C(O)c1nc(NCc2nc3cc(Cl)ccc3o2)n[nH]1`, the GI50 in the test with HL-60(TB) leukemia, with UACC-62 melanoma, in the test with MOLT-4 leukemia, with OVCAR-8 ovarian, in the test with SR leukemia and with U251 CNS was greater than 100 µM each time. Besides, the GI50 in the test on TK-10 renal, in the test on KM12 colon, with UACC-257 melanoma and with A549 NSCLC was greater than 100 µM each time. For the same compound, the total growth inhibition concentration (TGI) in the test on HL-60(TB) leukemia, in the test with UACC-62 melanoma, with MOLT-4 leukemia, with OVCAR-8 ovarian, in the test on SR leukemia and with U251 CNS was greater than 100 µM in each case. In addition, the concentration for total growth inhibition (TGI) with TK-10 renal, with KM12 colon, in the test with UACC-257 melanoma and in the test with A549 NSCLC was greater than 100 µM in each case.

Take `C/C(=N/O)c1cccc(Nc2cc(-n3nnc4ccccc43)nc3ccccc23)c1`: the GI50 is 13.1 µM with HL-60(TB) leukemia; 12.7 µM with UACC-62 melanoma; 4.05 µM in the test on MOLT-4 leukemia; 13.5 µM in the test with OVCAR-8 ovarian; 15 µM in the test on SR leukemia; 20.4 µM with U251 CNS. Also, the GI50 in the test with TK-10 renal was 13.6 µM; in the test on KM12 colon, 9.48 µM; with UACC-257 melanoma it was 22.7 µM; in the test on A549 NSCLC, 13.3 µM. Further, the TGI is 49.9 µM in the test with HL-60(TB) leukemia; 34 µM in the test with UACC-62 melanoma; greater than 40 µM in the test on MOLT-4 leukemia; 51.8 µM in the test on OVCAR-8 ovarian; 35.2 µM in the test with SR leukemia; greater than 100 µM with U251 CNS. Besides, the concentration for total growth inhibition (TGI) was 50.2 µM in the test on TK-10 renal, 28.4 µM in the test on KM12 colon, greater than 64.4 µM in the test with UACC-257 melanoma and greater than 72.9 µM with A549 NSCLC.

As for `COC(=O)/C(=N\NC(C)(C)C)C(C(=O)OC)C(=O)C(=O)Nc1cc(Cl)ccc1Cl` (stereo not drawn), the concentration for total growth inhibition (TGI) in the test on HL-60(TB) leukemia, with UACC-62 melanoma, in the test with MOLT-4 leukemia, with OVCAR-8 ovarian, with SR leukemia and with U251 CNS was greater than 100 µM in each case. Besides, the TGI with TK-10 renal, in the test on KM12 colon, in the test on UACC-257 melanoma and in the test with A549 NSCLC was greater than 100 µM each time.

In the case of `Nc1ncnc2c1ncn2C1OC(CSCC(F)(F)F)C(O)C1O` (stereo not drawn), the TGI in the test with HL-60(TB) leukemia, in the test on UACC-62 melanoma, with MOLT-4 leukemia, with OVCAR-8 ovarian, in the test on SR leukemia and in the test on U251 CNS was greater than 100 µM throughout. Further, the TGI in the test with TK-10 renal, in the test with KM12 colon, in the test on UACC-257 melanoma and in the test with A549 NSCLC was greater than 100 µM each time.

Consider `CC(CO)Nc1cc(-c2[nH]c3cccnc3c2-c2ccc(F)cc2)ccn1` (stereo not drawn), for which the GI50 in the test on HL-60(TB) leukemia is greater than 25 µM; with UACC-62 melanoma, 11.4 µM; with MOLT-4 leukemia it was greater than 25 µM; in the test with OVCAR-8 ovarian, 15.7 µM; in the test on SR leukemia, 17 µM; in the test on U251 CNS, 15.4 µM. The GI50 in the test on TK-10 renal was 6.86 µM; in the test on KM12 colon, 19.1 µM; with UACC-257 melanoma, greater than 25 µM; in the test on A549 NSCLC, 8.47 µM. For the same compound, the concentration for total growth inhibition (TGI) in the test on HL-60(TB) leukemia, in the test on UACC-62 melanoma, in the test on MOLT-4 leukemia, in the test on OVCAR-8 ovarian, in the test with SR leukemia and in the test with U251 CNS was greater than 25 µM in each case. Besides, the concentration for total growth inhibition (TGI) in the test with TK-10 renal, in the test with KM12 colon, in the test on UACC-257 melanoma and with A549 NSCLC was greater than 25 µM each time.

With `COc1ccc(C2=Nn3c(nnc3-c3cc(Cl)cc(Cl)c3Cl)SC2)cc1`, the GI50 in the test on HL-60(TB) leukemia is 0.461 µM; in the test with UACC-62 melanoma it was 0.436 µM; in the test on MOLT-4 leukemia, 1.49 µM; in the test with OVCAR-8 ovarian, 0.862 µM; in the test with SR leukemia, 0.826 µM; in the test on U251 CNS, 0.412 µM. The GI50 in the test on TK-10 renal is 2.26 µM; with KM12 colon, 0.384 µM; in the test with UACC-257 melanoma, 0.362 µM; in the test on A549 NSCLC, 0.631 µM. The concentration for total growth inhibition (TGI) with HL-60(TB) leukemia was 2.03 µM; with UACC-62 melanoma it was greater than 100 µM; in the test on MOLT-4 leukemia, greater than 100 µM; with OVCAR-8 ovarian, greater than 40.7 µM; in the test with U251 CNS, 24.7 µM; with TK-10 renal, greater than 53.9 µM. Also, the results for the TGI in the test with KM12 colon, with UACC-257 melanoma and with A549 NSCLC were 8.89 µM, greater than 95.3 µM and greater than 37.4 µM, respectively.

Consider `Cc1nc(C(N)=O)c(N)n1CCN1CCN(C(=O)CCCCCCCCCCNC2N=CNc3nc[nH]c32)CC1` (stereo not drawn), for which the TGI in the test on HL-60(TB) leukemia is 60.8 µM; in the test on UACC-62 melanoma, greater than 100 µM; with MOLT-4 leukemia it was 47.6 µM; in the test on OVCAR-8 ovarian, greater than 100 µM; in the test with SR leukemia, 43.3 µM; in the test on U251 CNS it was greater than 100 µM. Also, the TGI is greater than 100 µM in the test with TK-10 renal, greater than 100 µM with KM12 colon, 45.7 µM in the test on UACC-257 melanoma and greater than 100 µM in the test with A549 NSCLC.
